From ChEMBL document CHEMBL3885881, “DrugMatrix”

Species: Rattus norvegicus
Experiment: DrugMatrix - Regimen: Daily Repeat
Type: toxicity, organism-based, Sprague-Dawley
Parameters: regimen Daily Repeat, gender Male, age 6-8 weeks
Details: in vivo, po, route oral GAVAGE, […]; for ABSOLUTE BASOPHIL / ABSOLUTE EOSINOPHIL / ABSOLUTE LYMPHOCYTE / ABSOLUTE MONOCYTE / ABSOLUTE SEGMENTED NEUTROPHIL / BASOPHIL / EOSINOPHIL / ERYTHROCYTE COUNT / HEMATOCRIT / HEMOGLOBIN / LEUKOCYTE COUNT / LYMPHOCYTE / MEAN CORPUSCULAR HEMOGLOBIN / MEAN CORPUSCULAR HEMOGLOBIN CONCENTRATION / MEAN CORPUSCULAR VOLUME / MONOCYTE / NEUTROPHIL / NUCLEATED RED BLOOD CELLS / PLATELET COUNT: tissue Blood; for ALANINE AMINOTRANSFERASE / ALBUMIN / ALKALINE PHOSPHATASE / ASPARTATE AMINOTRANSFERASE / BLOOD UREA NITROGEN / CARBON DIOXIDE / CHLORIDE / CHOLESTEROL / CREATINE PHOSPHOKINASE / CREATININE / GLUCOSE / LACTATE DEHYDROGENASE / LIPASE / PHOSPHORUS / POTASSIUM / SODIUM / TOTAL BILIRUBIN / TOTAL PROTEIN / URIC ACID: tissue Plasma
[1] = 100 mg/kg, 120 h, dose level Low, time 5 day
[2] = 972 mg/kg, 72 h, dose level High, time 3 day
[3] = 972 mg/kg, 120 h, dose level High, time 5 day

With `CC(=O)Nc1ccc(O)cc1` [ACETAMINOPHEN] the “ABSOLUTE BASOPHIL” value [1] was 0 CELLS/uL, the “ABSOLUTE EOSINOPHIL” value [1] was 65 CELLS/uL and the “ABSOLUTE LYMPHOCYTE” value [1] was 8879.67 CELLS/uL. The “ABSOLUTE MONOCYTE” value [1] was 40.33 CELLS/uL, the “ABSOLUTE SEGMENTED NEUTROPHIL” value [1] was 548.33 CELLS/uL and the BASOPHIL [1] was 0%. The EOSINOPHIL [1] was 0.67%, the “ERYTHROCYTE COUNT” value [1] was 5.47 x10E6/uL and the HEMATOCRIT [1] was 34.53%. For the same compound, the HEMOGLOBIN [1] was 13.27 G/DL, the “LEUKOCYTE COUNT” value [1] was 9.53 x10E3/uL and the LYMPHOCYTE [1] was 93.67%. The “MEAN CORPUSCULAR HEMOGLOBIN” value [1] was 24.27 pg, the “MEAN CORPUSCULAR HEMOGLOBIN CONCENTRATION” value [1] was 38.43 G/DL and the “MEAN CORPUSCULAR VOLUME” value [1] was 63.13 fL. The MONOCYTE [1] was 0.33%, the NEUTROPHIL [1] was 5.33% and the “NUCLEATED RED BLOOD CELLS” value [1] was 0 /100WBC. For the same compound, the “PLATELET COUNT” value [1] was 1237.33 x10E3/uL, the “ALANINE AMINOTRANSFERASE” value [1] was 58.33 u/L and the ALBUMIN [1] was 4.3 G/DL. For the same compound, the “ALKALINE PHOSPHATASE” value [1] was 341.67 u/L, the “ASPARTATE AMINOTRANSFERASE” value [1] was 84 u/L and the “BLOOD UREA NITROGEN” value [1] was 14 mg/dL. The “CARBON DIOXIDE” value [1] was 27.33 mmol/L, the CHLORIDE [1] was 98.33 MEQ/L and the CHOLESTEROL [1] was 81.33 mg/dL. The “CREATINE PHOSPHOKINASE” value [1] was 273 u/L, the CREATININE [1] was 0.18 mg/dL and the GLUCOSE [1] was 158.67 mg/dL. For the same compound, the “LACTATE DEHYDROGENASE” value [1] was 79.67 u/L, the LIPASE [1] was 10 u/L and the PHOSPHORUS [1] was 9.17 mg/dL. The POTASSIUM [1] was 5.75 MEQ/L, the SODIUM [1] was 143.87 MEQ/L and the “TOTAL BILIRUBIN” value [1] was 0.23 mg/dL. The “TOTAL PROTEIN” value [1] was 6.27 G/DL, the “URIC ACID” value [1] was 0.77 mg/dL and the “ABSOLUTE BASOPHIL” value [2] was 0 CELLS/uL. The “ABSOLUTE EOSINOPHIL” value [2] was 0 CELLS/uL, the “ABSOLUTE LYMPHOCYTE” value [2] was 8609 CELLS/uL and the “ABSOLUTE MONOCYTE” value [2] was 158.2 CELLS/uL. For the same compound, the “ABSOLUTE SEGMENTED NEUTROPHIL” value [2] was 1212.8 CELLS/uL, the BASOPHIL [2] was 0% and the EOSINOPHIL [2] was 0%. The “ERYTHROCYTE COUNT” value [2] was 5.94 x10E6/uL, the HEMATOCRIT [2] was 36.4% and the HEMOGLOBIN [2] was 13.62 G/DL. The “LEUKOCYTE COUNT” value [2] was 9.98 x10E3/uL, the LYMPHOCYTE [2] was 85.6% and the “MEAN CORPUSCULAR HEMOGLOBIN” value [2] was 22.9 pg. The “MEAN CORPUSCULAR HEMOGLOBIN CONCENTRATION” value [2] was 37.44 G/DL, the “MEAN CORPUSCULAR VOLUME” value [2] was 61.28 fL and the MONOCYTE [2] was 2%. For the same compound, the NEUTROPHIL [2] was 12.4%, the “NUCLEATED RED BLOOD CELLS” value [2] was 0 /100WBC and the “PLATELET COUNT” value [2] was 1006.4 x10E3/uL. The “ALANINE AMINOTRANSFERASE” value [2] was 85 u/L, the ALBUMIN [2] was 4.4 G/DL and the “ALKALINE PHOSPHATASE” value [2] was 536.6 u/L. For the same compound, the “ASPARTATE AMINOTRANSFERASE” value [2] was 123.8 u/L, the “BLOOD UREA NITROGEN” value [2] was 14 mg/dL and the “CARBON DIOXIDE” value [2] was 31.2 mmol/L. The CHLORIDE [2] was 99.67 MEQ/L, the CHOLESTEROL [2] was 76.2 mg/dL and the “CREATINE PHOSPHOKINASE” value [2] was 298.8 u/L. The CREATININE [2] was 0.19 mg/dL, the GLUCOSE [2] was 161 mg/dL and the “LACTATE DEHYDROGENASE” value [2] was 128 u/L. For the same compound, the LIPASE [2] was 10.8 u/L, the PHOSPHORUS [2] was 10.82 mg/dL and the POTASSIUM [2] was 5.81 MEQ/L. The SODIUM [2] was 143.6 MEQ/L, the “TOTAL BILIRUBIN” value [2] was 0.14 mg/dL and the “TOTAL PROTEIN” value [2] was 6.04 G/DL. For the same compound, the “URIC ACID” value [2] was 0.68 mg/dL, the “ABSOLUTE BASOPHIL” value [3] was 0 CELLS/uL and the “ABSOLUTE EOSINOPHIL” value [3] was 17.8 CELLS/uL. For the same compound, the “ABSOLUTE LYMPHOCYTE” value [3] was 10212.2 CELLS/uL, the “ABSOLUTE MONOCYTE” value [3] was 135.4 CELLS/uL and the “ABSOLUTE SEGMENTED NEUTROPHIL” value [3] was 1674.6 CELLS/uL. For the same compound, the BASOPHIL [3] was 0%, the EOSINOPHIL [3] was 0.2% and the “ERYTHROCYTE COUNT” value [3] was 6.63 x10E6/uL. For the same compound, the HEMATOCRIT [3] was 40.4%, the HEMOGLOBIN [3] was 14.86 G/DL and the “LEUKOCYTE COUNT” value [3] was 12.04 x10E3/uL. The LYMPHOCYTE [3] was 85.2%, the “MEAN CORPUSCULAR HEMOGLOBIN” value [3] was 22.46 pg and the “MEAN CORPUSCULAR HEMOGLOBIN CONCENTRATION” value [3] was 36.82 G/DL. The “MEAN CORPUSCULAR VOLUME” value [3] was 61 fL, the MONOCYTE [3] was 1.2% and the NEUTROPHIL [3] was 13.4%. For the same compound, the “NUCLEATED RED BLOOD CELLS” value [3] was 0 /100WBC, the “PLATELET COUNT” value [3] was 1437.6 x10E3/uL and the “ALANINE AMINOTRANSFERASE” value [3] was 100 u/L. The ALBUMIN [3] was 4.46 G/DL, the “ALKALINE PHOSPHATASE” value [3] was 485.6 u/L and the “ASPARTATE AMINOTRANSFERASE” value [3] was 108.4 u/L. The “BLOOD UREA NITROGEN” value [3] was 14.2 mg/dL, the “CARBON DIOXIDE” value [3] was 29 mmol/L and the CHLORIDE [3] was 104 MEQ/L. The CHOLESTEROL [3] was 71.6 mg/dL, the “CREATINE PHOSPHOKINASE” value [3] was 328.8 u/L and the CREATININE [3] was 0.17 mg/dL. The GLUCOSE [3] was 154 mg/dL, the “LACTATE DEHYDROGENASE” value [3] was 199.2 u/L and the LIPASE [3] was 9.8 u/L. The PHOSPHORUS [3] was 13.5 mg/dL, the POTASSIUM [3] was 6.73 MEQ/L and the SODIUM [3] was 144.74 MEQ/L. For the same compound, the “TOTAL BILIRUBIN” value [3] was 0.22 mg/dL, the “TOTAL PROTEIN” value [3] was 6.42 G/DL and the “URIC ACID” value [3] was 3.3 mg/dL.
